Like-named read-outs stand apart in the source and are kept apart here.
What was measured:
[1] = Solvency test: solubility of bis-ethylhexyloxyphenol methoxyphenyl triazine (bemotrizinol) in solvent, visible crystals after storage
Procedure: (§1) In the testing provided below, “soluble” (or “solubilize”), in relation to the solubility of a solid solute being tested, means that no visible crystals may be seen after a prescribed storage period at a storage condition. The storage period can vary. Suitable storage periods include about 24 hours, about 1 week, and about 30 days. Suitable storage conditions include ambient conditions or cold storage at 5° C. (approximately 1 atm). In certain embodiments, solubility may be determined after a 24 hour storage period at ambient conditions. In other embodiments, solubility may be determined after 20 days in cold storage. Other testing parameters may include storage for prolonged time periods (e.g., 30 day, 50 days, 60 days, 90 days) and at variable temperatures (e.g., 5° C., 50° C.).
The solvency of an isosorbide diester within the scope of the present invention was tested against two conventional, industry standard solvents. […] Solubility was also evaluated for samples stored for 7 day at 5° C. followed by equilibration to ambient conditions.

[2] = Solvency test: solubility of butyl methoxydibenzoylmethane (avobenzone) in solvent, visible crystals after storage
Procedure: as §1
The solvency of an isosorbide diester within the scope of the present invention was tested against two conventional, industry standard solvents. […] Various ratios of the solute:solvent were prepared by mixing solvents and the solid sunscreen (solute) and heating to 70° C. Upon reaching 70° C., the examples may be mixed for about 10 minutes. The mixtures are placed in a covered vial and cooled to the storage temperature. Solubility was evaluated for samples stored 24 hours after mixing at room temperature. […]

[3] = solute bemotrizinol (Tinosorb S), 24 hour rest at Ambient Conditions
[4] = solute bemotrizinol (Tinosorb S), 30 day storage at 5° C.
[5] = solute avobenzone (PARSOL 1789), 24 hour rest at Ambient Conditions

Row | Solubility at Solute:Solvent Ratio 1:4 [1] | Solubility at Solute:Solvent Ratio 1:6 [1] | Solubility at Solute:Solvent Ratio 1:8 [1] | Solubility at Solute:Solvent Ratio 1:2 [2] | Solubility at Solute:Solvent Ratio 1:3 [2] | Solubility at Solute:Solvent Ratio 1:4 [2] | Structure (SMILES) | Solubility at Solute:Solvent Ratio 1:3 [1, 3] | Solubility at Solute:Solvent Ratio 1:4 [1, 3] | Solubility at Solute:Solvent Ratio 1:6 [1, 3] | Solubility at Solute:Solvent Ratio 1:8 [1, 3] | Solubility at Solute:Solvent Ratio 1:3 [1, 4] | Solubility at Solute:Solvent Ratio 1:6 [1, 4] | Solubility at Solute:Solvent Ratio 1:8 [1, 4] | Solubility at Solute:Solvent Ratio 14 [1, 4] | Solvency compared with the industry leading solvents ([1]; solute bemotrizinol, versus isopropyl lauroyl sarcosinate and C12-15 alkyl benzoate) | Solubility at Solute:Solvent Ratio 1:3 [2, 5] | Solubility at Solute:Solvent Ratio 1:4 [2, 5] | Solubility at Solute:Solvent Ratio 1:4 ([2]; solute avobenzone (PARSOL 1789), 30 day storage at 5° C.) | Solvency compared with the industry leading solvents ([2]; solute avobenzone, versus isopropyl lauroyl sarcosinate and C12-15 alkyl benzoate)
1 | S | S | S | S | S | S | CCCCCCCCCCCC(=O)N(C)CC(=O)OC(C)C [Isopropyl lauroyl sarcosinate, isopropyl lauroyl sarcosinate, reference compound] |  |  |  |  |  |  |  |  |  |  |  |  | 
2 |  |  |  |  |  |  | CCCCCCCC(=O)OC1COC2C(OC(=O)CCCCCCC)COC12 (stereo not shown) [Isosorbide dicaprylate, isosorbide dicaprylate] | S | S | S | S | S | S | S | S | superior to the industry leading solvents | S | S | S | equivalent to the industry leading solvents

Source: US9192552B2, “Personal care compositions with improved solubility of a solid UV active” (priority 2011, dated 2015)
